In assay [1] the test system is PANC1 cells. Description: Optimization of conditions for intracellular synthesis of fluorescent GNCs. Format: cell-based, human. As for the experimental part: 2.3. Optimization of conditions for intracellular synthesis of GNCs. We determined optimal conditions for intracellular synthesis of fluorescent GNCs by PANC1 cells through variations in (1) how long cells condition media before addition of Au^3+ ions (FIG. 11), (2) the concentration of FBS within the media (FIG. 10), (3) concentration of added Au^3+ ions (FIGS. 13), and (4) incubation time (FIG. 12). We used the following standard conditions: 24 hr cell conditioning time, 10% FBS, 1.00 mM Au^3+, and 24 hr Au^3+ treatment duration. […] We observed significant formation of GNCs at Au^3+ concentrations between 0.20-0.75 mM, with fluorescence reduced at concentrations greater than 1.00 mM, possibly, due to formation of larger non-fluorescent gold nanoparticles (GNPs). We observed fluorescence as early as 30 minutes after addition of gold atoms with a significant increase up to 4 hours.

The test system of assay [2] is pancreatic cancer cells (MIAPACA2). In words: Confocal fluorescence imaging of in situ GNC synthesis. Format: cell-based, human. The conditions noted are these: MIAPACA2; 1 mM, 24 hours; 561 nm excitation, 610 nm emission. As for the experimental part:
FIG. 4 presents fluorescence confocal images of non-cancerous (HPDE) and cancerous (MIAPaCa2) pancreatic cells treated with either 1 mM of Au^3+ gold ions or premade albumin-GNCs at 1 mM Au^0 for 24 hours. (From left to right) Cells: untreated; treated with albumin-GNCs; treated with Au^3+ gold ions. […] The strong red fluorescence in cancer cells indicated intracellular synthesis of GNCs from gold ions. Scale bars are 25 μm.
We compared in situ synthesis of GNCs by pancreatic cancer cells (MIAPACA2) and pancreatic noncancerous cells (HPDE) (FIG. 4). Confocal fluorescence images were obtained using a Leica TCS SP8 confocal microscope with 561 nm excitation and 610 nm emission optimized for detection of GNCs.

Assay [3] deals with PANC1 pancreatic cancer. In words: TBARS assay of peroxidation product formation. In kind it is cell-based, human. The conditions noted are these: 24 hr post irradiation. As for the experimental part: FIG. 25 reports on a mechanistic study of radiosensitization quantifying the ratio of peroxidation product formation resulting from X-ray damage through TBARS assay, resulting from 24 hour, 0.20 mM Au^3+ treatments (right) compared against non-treated (left) combined with either 0 Gy or 8 Gy x-ray irradiation. Treatments are in full cell media to PANC1 pancreatic cancer.
(§1) Further, we characterized the mechanisms of radiosensitization through (i) quantification of double stranded DNA breaks via y-H2AX Foci (FIG. 21), (ii) mitochondrial polarization via JC-1 assay (FIG. 22), (iii) NADP total (FIG. 23) and NADP:NADPH ratio (FIG. 24) via NADP(H) assay, and (iv) peroxidation production via TBARS assay (FIG. 25).

Assay [4] concerns PANC1 cells. Description: Fluorescence of in situ synthesis vs uptake of prefabricated GNCs. Format: cell-based, human. The conditions noted are these: 1.00 mM, 24 hr (FIG. 8B). The source says: (§2) Hoechst nuclear stain is the only imaging source in the untreated column and the primary imaging source in the albumin-GNC column and the non-cancer Au^3+ panel. Cells are live during imaging. Scale bars are 10 μm.
(§3) FIG. 8B quantifies GNC channel pixel intensity of the samples in each of the rows of FIG. 8A.
(§4) 2.2. Comparisons of efficiency of the GNC in situ synthesis by cancer and normal cells. We compared GNC biosynthesis between normal (HPDE) and cancerous (Mia-PaCa-2 and PANC1) pancreatic cells using fluorescent confocal microscopy (FIG. 8A). In addition, we compared the efficiency of the intracellular synthesis with extracellular uptake of prefabricated albumin coated GNCs (FIG. 8A). […] Further, there was 12.20- and 7.69-times greater fluorescence due to in situ synthesis relative to cellular uptake of prefabricated GNCs in PANC1 and Mia-PaCa-2 cells, respectively (FIG. 8B).

The next assay deals with Mia-PaCa-2 cells. The description is as above. Format: cell-based, human. The conditions noted are these: 1.00 mM, 24 hr (FIG. 8B).
From the text: as §2, §3, §4

Assay [5] concerns PANC1 pancreatic cancer. In words: MTT assay of cell viability after x-ray irradiation. The conditions noted are these: 24 hours after irradiation, all radiation dosages greater than 0 Gy, 0.20 mM. In kind it is cell-based, human. As for the experimental part: FIG. 26 presents evidence of radiosensitization, quantifying the cell viability resulting from X-ray damage through MTT assay measured 24 and 96 hours after x-ray irradiation, resulting from 24 hour, 0.20 mM Au^3+ treatments (right bar in each dosage pair) compared against non-treated (left bar in each dosage pair) combined with either 0 Gy or 8 Gy x-ray irradiation. Treatments are in full cell media to PANC1 pancreatic cancer.

In assay [6] the test system is PANC1 xenografts in nu/nu mice. Description: Tumor volume after 10 Gy X-ray irradiation in xenografts. In kind it is in vivo. The conditions noted are these: 48 hours after treatment with 1.00 mM.
Assay [7] concerns PANC1 pancreatic cancer. In words: gamma H2AX foci quantification of double stranded DNA breaks. Format: cell-based, human. As for the experimental part:
FIG. 21 reports on a mechanistic study of radiosensitization quantifying gamma H2AX foci through fluorescent antibody staining measured at 0, 4, and 24 hours, resulting from 24 hour 0.20 mM Au^3+ treatments (lower three) compared against non-treated (upper three) combined with either 0 Gy or 8 Gy x-ray irradiation. Treatments are in full cell media to PANC1 pancreatic cancer.
2.5. Evaluate radiosensitization efficacy and radiosensitization mechanisms for in situ synthetized GNCs. Based on the studies described in Sections 2.3-2.4, we selected the following conditions for radiosensitization studies in cell culture: 24 hr media conditioning by cells, 10% FBS (v/v) within, and 0.20 mM Au^3+ for 24 hrs.
as §1

Results on 1 compound are retold here after patent publication US20230256094A1, “CANCER RADIOSENSITIZATION BY IN SITU FORMATION OF GOLD NANOPARTICLES AND/OR GOLD NANOCLUSTERS” (BOARD OF REGENTS, THE UNIVERSITY OF TEXAS SYSTEM, priority 2020, published 2023).

Turning to `[Au+3].[Cl-].[Cl-].[Cl-].[Cl-].[H+]` [Au^3+, chloroauric acid], in the assay with PANC1 cells [1] (1.00 mM, 10% FBS), the “earliest time at which fluorescence was observed after addition” value turned out to be 30 min and the “time up to which fluorescence increased significantly” value was “up to 4 hours”. In addition, in the assay on PANC1 cells [1] (24 hr treatment, 10% FBS), the “Au^3+ concentrations at which fluorescence is reduced” value is recorded as “greater than 1.00 mM” and the “Au^3+ concentrations with significant formation of GNCs” value fell in the range of 0.20 to 0.75 mM. Also, in the assay on PANC1 cells [1] (media conditioning up to 72-hr, FBS 0-10% (v/v)), the “change of GNC synthesis with duration of media conditioning or FBS concentration” value is “No significant changes”. Also, in assay [2], the “GNC fluorescence / GNC formation” value was “ubiquitous”. Moreover, the “increase in peroxidation product formation” value in the assay with PANC1 pancreatic cancer [3] was approximately 2 x. In addition, in the assay with PANC1 cells [4], the “greater fluorescence due to in situ synthesis relative to cellular uptake of prefabricated GNCs” value worked out at 12.20 times. Further, in the assay with Mia-PaCa-2 cells, the “greater fluorescence due to in situ synthesis relative to cellular uptake of prefabricated GNCs” value amounted to 7.69 times. In addition, the “cell viability vs untreated controls (MTT)” value in the assay with PANC1 pancreatic cancer [5] is “significantly lower cell viability”. Also, the “radiosensitization effect by tumor volume measurements” value in assay [6] is “evidence of radiosensitization effect”. The “fewer DNA breaks than in untreated control” value in the assay with PANC1 pancreatic cancer [7] (4 hrs after 8 Gy irradiation, 0.20 mM, 24 hrs) came out at 29%. In addition, in the assay on PANC1 pancreatic cancer [7] (24 hr post-irradiation, 8 Gy), the “repair of DNA breaks” value is recorded as “no significant repair”.
